# “Also recorded” adds a separate entry of the source.
# Assays:
# SW48 isogenic cell line = experiment: SW48 isogenic KRAS knock-in cells, crystal violet and pERK Western blot; format: cell-based; details: AZ-628 starting at 0.1 μM, cobimetinib 250 nM; FIGS. 6F-6G
# Experimental: (§1) Cells were plated in duplicate in 6-well plates at 10,000 cells/well, allowed to attach overnight and treated for 8 days with the indicated compounds. Media with appropriate compounds was replenished every 72 hours. At 8 days cells were rinsed once with PBS, fixed and stained with crystal violet solution (Sigma Aldrich, HT90132) for 20 minutes and washed with water.
# (§2) Cells lysed in lysis buffer (0.5% NP40, 20 mM Tris, pH 7.5, 137 mM NaCl, 10% glycerol, 1 mM EDTA) plus protease inhibitor mixture-complete mini (Roche Applied Science, 11836170001) and phosphatase inhibitor mix (Thermo, 78426). Lysates were centrifuged at 15,000 rpm for 10 minutes and the protein concentration determined using BCA (Thermo, 23227). Equal amounts of protein were subjected to SDS-PAGE NuPAGE 4-12% Bis-Tris Gel (Novex, WG-1403) and transferred to nitrocellulose membrane (BioRad, 170-4159). After blocking in blocking buffer (Li-Cor, 927-40000), membranes were incubated with the indicated primary antibodies and analyzed either by the addition of secondary antibodies IRDye 680LT Goat anti-Mouse IgG (H+L) (Li-Cor, 926-68050) or IRDye 800CW goat anti-Rabbit IgG (H+L) (Li-Cor, 926-32211). The membranes were visualized on the LiCor Odyssey CLx Scanner.
# [1] = system: panel of 213 tumor cell lines; experiment: 213 cell line panel, co-diluted combinations with pictilisib; format: cell-based; details: 3 days, FIG. 7A
# Experimental: (§3) Compounds were screened in nine-point dose response using a three-fold dilution. Cells were seeded into 384-well plates 24 hours prior to compound addition. Cells were then incubated with compound for 72 hours or 120 hours before assaying viability (CellTiter-Glo, Promega). Assays were performed in biological triplicate. Cells were incubated (37° C., 5% CO2) in RPMI-1640, 2.5% FBS (72 hour assay) or 5% FBS (120 hour assay), and 2 mM glutamine throughout the assay. The reported IC50 and mean viability metrics are as follows: IC50 is the dose at which the estimated inhibition is 50% relative to untreated wells (i.e., absolute IC50). Mean viability is equivalent to the area under the log-dose/viability curve divided by the total number of tested doses.
# (§4) For combination synergy studies, cells were plated in 384-well plates (Corning) and treated with varying concentrations of compound, either alone or in combination for 72 hours. Cell viability was determined using CellTiter-Glo Luminescent Cell Viability Assay (Promega, G7573). Synergistic effects were determined using the Bliss independence analysis methods (Greco et al. Pharmacol. Rev. 47: 331-385, 1995; Chou and Talalay. Adv. Enzyme Regul. 22:27-55, 1984; Chou. Cancer Res. 70: 440-446, 2010; Bliss. Ann. Appl. Biol. 25: 31, 1939).
# A549 cells [2] = experiment: Apoptosis: cleaved PARP Western blot and Annexin V/propidium iodide flow cytometry; format: cell-based; details: AZ-628 combined with cobimetinib; 48 hours; FIG. 2D-2E
# Experimental: as §2
# [3] = system: 322 cell lines (pancreas, lung, colorectal, skin, ovary and blood); experiment: 322 cell line screen, AZ-628 and cobimetinib single agents and co-dilution; format: cell-based
# Experimental: as §3, §4
# DUSP6 and SPRY4 = experiment: RNA sequencing of MAPK transcriptional targets; format: cell-based; details: 0.1 μM AZ-628 combined with cobimetinib; six hours; four KRAS mutant lung cancer cell lines; FIG. 2C
# Experimental: Cells were seeded overnight and treated with AZ-628 and cobimetinib either singly (0.1 μM) or in combination (0.1 μM each) for 6 hours. Control cells were treated with DMSO (0.2% final concentration). Total RNA was extracted as per manufacturer's protocol using RNEasy mini kits with on-column DNAse digestion (Qiagen #74106 and #79254). Quality control of samples was done to determine RNA quantity and quality prior to their processing by RNA-seq. The concentration of RNA samples was determined using NanoDrop 8000 (Thermo Scientific) and the integrity of RNA was determined by Fragment Analyzer (Advanced Analytical Technologies). 0.5 μg of total RNA was used as an input material for library preparation using TruSeq RNA Sample Preparation Kit v2 (Illumina). Size of the libraries was confirmed using 2200 TapeStation and High Sensitivity D1000 screen tape (Agilent Technologies) and their concentration was determined by qPCR based method using Library quantification kit (KAPA). The libraries were multiplexed and then sequenced on Illumina HiSeq2500 (Illumina) to generate 30M of single-end 50 base pair reads.
# Reads were mapped to the hg19 genome using RefSeq gene models with the aligner GSNAP. […] Significance for linear model terms was determined by moderated t-tests as implemented in the limma software.
# [4] = system: NRAS mutant melanoma cell line; experiment: Viability of NRAS mutant melanoma versus BRAF-V600E and wild-type lines; format: cell-based; details: for cell viability and 1050, NRAS mutant vs BRAF-V600E: separate study, FIGS. 8C and 8D
# Experimental: Compounds were screened in nine-point dose response using a three-fold dilution. Cells were seeded into 384-well plates 24 hours prior to compound addition. Cells were then incubated with compound for 72 hours or 120 hours before assaying viability (CellTiter-Glo, Promega). Assays were performed in biological triplicate. […] Mean viability is equivalent to the area under the log-dose/viability curve divided by the total number of tested doses.
# A549 cells [5] = experiment: Clonogenic (colony growth) assay; format: cell-based; details: for single-agent effect on cell growth: 8-day clonogenic, 50-100 nM cobimetinib, 100 nM AZ-628
# Experimental: as §1
# pMEK, pERK, pRSK, pAKT = experiment: Immunoblot of pathway markers after compound treatment; format: cell-based; details: A549
# Experimental: as §2
# [6] = system: NCI-H2122 lung xenograft tumor; experiment: NCI-H2122 lung xenograft tumor model
# Experimental: (§6) The formulations were mixed well by vortexing before dosing. Test articles were stored in a refrigerator set to maintain a temperature range of 4° C.-7° C.
# (§7) Only animals that appeared to be healthy and that were free of obvious abnormalities were used for each study. Tumor volumes were determined using digital calipers (Fred V. Fowler Company, Inc.) using the formula (L×W×W)/2. […] Mice were weighed twice a week using a standard scale.
# pMEK = experiment: Immunoblot of pMEK after cobimetinib in KRAS mutant and wild-type cell lines; format: cell-based; details: for pMEK levels after treatment: cobimetinib 24 hours
# Experimental: as §2
# RAS-GTP = experiment: Ras activity assay (RAF1-RBD pull-down); format: cell-based
# Experimental: Levels of active GTP-loaded Ras were determined by GST-Raf-RBD pull-down assay (Thermo Scientific, 16117). In brief, GST-Raf-RBD fusion proteins were incubated with glutathione beads, and cells were collected in lysis buffer as recommended by the manufacturer. The cell lysates were incubated with the GST-Raf-RBD immobilized beads for 1.5 hours at 4° C. Bound proteins were eluted with SDS sample buffer and analyzed by Western blot.
# pEGFR = experiment: Immunoblot of pEGFR after cobimetinib; format: cell-based; details: cobimetinib 250 nM, 24 hours; FIG. 6K
# Experimental: as §2
# [7] = system: A549 KRAS-mutant lung cancer cell line; experiment: Tool compound combination screen with AZ-628; format: cell-based; details: 1 μM AZ-628 versus DMSO, FIG. 1D-1E
# Experimental: A compound library comprising 480 compounds arrayed in 9-point dose response was screened in the absence or presence of a fixed dose of either AZ-628 or DMSO in A549 cells. A549 cells were seeded into 384 well plates, and compound was added 24 h later. Cell viability was determined 120 h post-compound addition (CellTiter Glo). Curves were fitted, and both IC50 and mean viability metrics were calculated. The IC50 is the dose at which inhibition is 50% relative to untreated wells. The mean viability is the average of the fitted viabilities at each tested dose. Mean viability is equivalent to the area under the log-dose/viability curve divided by the total number of tested doses. All data were fitted using Genedata Screener (GDS) software. The combination metric was the difference in mean viability between the AZ-628 treated arm and the DMSO treated arm for each compound.
# RAF dimers = target: T1, RAF dimers (Homo sapiens, UniProt P04049+P15056); experiment: In vitro kinase assay of immunoprecipitated RAF with unactive MEK; format: biochemical
# T1 construct: Cobimetinib-induced RAF dimers were immunoprecipitated from A549 cells; endogenous in cells; A549, H2122 and HCT116 for cobimetinib induction
# Experimental: (§5) Cells were plated and lysed as described in immunoblotting method. Cell lysates were incubated with anti-CRAF (Millipore 07-396) or anti-BRAF antibody (Millipore 07-453) and 50 μl of Protein A agarose beads (Millipore 16-125) for 2 h at 4° C. After washing with lysis buffer plus protease and phosphatase inhibitor mixtures, protein A beads were incubated with 0.4 μg of unactive MEK1 (Millipore 14-420) in 40 μl of kinase buffer (20 mM MOPS, pH 7.2, 25 mM β-glycerol phosphate, 5 mM EGTA, 1 mM sodium orthovanadate, 1 mM DTT, 120 μM ATP, 18 mM MgCl2) for 30 min at 30° C. Samples were then analyzed by Western blot.
# [8] = system: HCT116 colon xenograft tumor; experiment: HCT116 colon xenograft tumor model; details: HCT116; LY-3009120 25 mg/kg IP QD; cobimetinib 5 mg/kg PO QD; FIG. 3A
# Experimental: as §6, §7
# BRAF-CRAF heterodimer = experiment: CRAF immunoprecipitation (RAF dimerization); format: cell-based
# Experimental: as §5
# T1 sequence (P04049 whole entry): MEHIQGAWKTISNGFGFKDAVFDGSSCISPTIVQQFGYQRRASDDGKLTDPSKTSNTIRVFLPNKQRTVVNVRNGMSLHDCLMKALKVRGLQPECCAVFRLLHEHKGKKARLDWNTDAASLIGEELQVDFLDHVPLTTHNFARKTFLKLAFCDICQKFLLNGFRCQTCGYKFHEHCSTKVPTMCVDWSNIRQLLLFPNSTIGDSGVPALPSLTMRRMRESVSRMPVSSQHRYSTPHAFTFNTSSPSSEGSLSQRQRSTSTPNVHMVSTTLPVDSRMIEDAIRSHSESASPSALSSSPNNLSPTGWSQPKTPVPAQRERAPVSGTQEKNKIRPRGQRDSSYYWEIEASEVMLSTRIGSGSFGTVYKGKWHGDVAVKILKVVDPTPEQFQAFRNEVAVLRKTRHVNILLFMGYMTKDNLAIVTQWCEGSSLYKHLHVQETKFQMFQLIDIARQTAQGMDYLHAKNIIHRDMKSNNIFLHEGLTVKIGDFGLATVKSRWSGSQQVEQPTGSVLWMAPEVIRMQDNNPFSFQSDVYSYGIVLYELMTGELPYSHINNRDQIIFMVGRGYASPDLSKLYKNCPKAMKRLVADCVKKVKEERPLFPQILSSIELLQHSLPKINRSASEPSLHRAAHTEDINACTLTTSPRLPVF
# T1 sequence (P15056 2-766 limits assumed): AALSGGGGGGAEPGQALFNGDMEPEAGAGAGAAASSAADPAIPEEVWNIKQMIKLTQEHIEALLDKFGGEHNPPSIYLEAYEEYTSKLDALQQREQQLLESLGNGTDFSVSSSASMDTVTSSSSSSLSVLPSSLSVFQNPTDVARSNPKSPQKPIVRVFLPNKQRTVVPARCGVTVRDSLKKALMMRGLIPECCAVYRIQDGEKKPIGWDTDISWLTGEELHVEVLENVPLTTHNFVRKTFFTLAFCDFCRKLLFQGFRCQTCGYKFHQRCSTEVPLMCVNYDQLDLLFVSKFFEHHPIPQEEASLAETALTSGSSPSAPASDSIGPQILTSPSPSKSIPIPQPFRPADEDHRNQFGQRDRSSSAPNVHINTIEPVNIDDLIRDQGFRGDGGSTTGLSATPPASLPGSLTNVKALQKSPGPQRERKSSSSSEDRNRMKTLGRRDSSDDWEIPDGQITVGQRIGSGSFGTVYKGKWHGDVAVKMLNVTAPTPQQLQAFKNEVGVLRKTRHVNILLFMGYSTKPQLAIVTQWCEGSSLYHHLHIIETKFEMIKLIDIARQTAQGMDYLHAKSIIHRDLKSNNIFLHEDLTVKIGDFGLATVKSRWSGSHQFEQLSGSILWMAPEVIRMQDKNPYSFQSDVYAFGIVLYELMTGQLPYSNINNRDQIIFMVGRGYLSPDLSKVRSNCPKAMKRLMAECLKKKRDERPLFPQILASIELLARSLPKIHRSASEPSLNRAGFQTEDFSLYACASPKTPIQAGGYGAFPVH
structure (smiles),measurement,setting,value
Cc1ccc(NC(=O)c2cccc(C(C)(C)C#N)c2)cc1Nc1ccc2ncn(C)c(=O)c2c1 [AZ-628],synergy with cobimetinib by KRAS knock-in,SW48 isogenic cell line,displayed greater synergy than KRAS-G12D and KRAS-G12C knock-in cells; also recorded: greater in KRAS-G13D mutant SW48 cells compared to KRAS-G12D or KRAS-G12C mutant SW48 cells
same,synergy (positive Bliss excess) with pictilisib,[1],"large general increased synergy in the AZ-628/pictilisib combination compared to the cobimetinib/pictilisib combination; also recorded: synergizes with pan-PI3K inhibitor, pictilisib (GDC-0941)"
same,induction of apoptosis,A549 cells [2],significant induction of cell apoptosis; also recorded: increased cleaved PARP
same,association of combination sensitivity with KRAS-G13D,"[3]; AZ-628 and cobimetinib, FIGS. 6A-6C",significant association between sensitivity to the RAF plus MEK inhibitor combination and presence of the G13D mutation; also recorded: KRAS-G13D mutant cell lines are more sensitive to the combination of RAF and MEK inhibition
same,synergy score (positive Bliss excess) with cobimetinib by genotype,"[3]; co-dilution with cobimetinib, 3 days, FIG. 5A","Significantly higher synergy scores were observed in KRAS and NRAS mutant cell lines compared to either BRAF-V600 mutants or wild-type; also recorded: greater synergy in RAS mutant (G12/G13/Q61) cell lines, and a subset of RAS/RAF wild-type cell lines relative to BRAF-V600 cell lines"
same,downregulation of DUSP6 and SPRY4,DUSP6 and SPRY4,downregulation of these genes was more profound than expected if the effect of combining the two single agents was merely additive
same,"effect on mean viability, NRAS mutant vs BRAF-V600E",[4]; FIG. 8A,approximately equivalent effects on mean viability
same,"cell viability and 1050, NRAS mutant vs BRAF-V600E",[4],had an equivalent effect in NRAS mutant and BRAF-V600E mutant cell lines
same,single-agent effect on cell growth,A549 cells [5],had little effect on cell growth on their own
same,synergy with cobimetinib in colony formation,"A549 cells [5]; 8 days, crystal violet, FIG. 2F, 5E",marked synergy
same,pMEK accumulation and signaling to ERK,"pMEK, pERK, pRSK, pAKT; AZ-628 combined with pictilisib, 24 hours, FIG. 7G",prevent the accumulation of pMEK and abrogate downstream signaling to ERK
same,pAKT levels,"pMEK, pERK, pRSK, pAKT; AZ-628 in combination with cobimetinib, FIG. 2B",little observed impact on pAKT levels
same,"MAPK pathway output (pMEK, pERK, pRSK)","pMEK, pERK, pRSK, pAKT; RAF inhibitor 0.1-10 μM with or without fixed dose cobimetinib, 24 hours, FIG. 2B",only in combination with cobimetinib effectively inhibited MAPK pathway output
same,"tumor growth, combination with cobimetinib","[6]; NCI-H2122, AZ-628+GDC-0973, FIG. 3A",robust combination effect
same,tolerability / body weight,"[6]; NCI-H2122 xenograft mice, combination with cobimetinib, FIG. 3B","well tolerated in the mice, resulting in little or minimal changes in body weight post-treatment"
O=C(c1ccc(F)c(F)c1Nc1ccc(I)cc1F)N1CC(O)([C@@H]2CCCCN2)C1 [cobimetinib],pMEK levels after treatment,"pMEK; KRAS mutant vs KRAS wild-type cells, FIG. 4A",an increase in the pMEK levels in the KRAS mutant cells but not the KRAS wild-type cells
same,pMEK levels after treatment,"pMEK; synergistic vs non-synergistic colon and lung lines, FIGS. 4B-4D",an increase in the pMEK levels in the KRAS mutant and wild-type synergistic cells but not the KRAS mutant and wild-type non-synergistic cells
same,"induction of pMEK, KRAS-G13D vs non-KRAS-G13D","pMEK; colorectal cell lines, cobimetinib 250 nM, 24 hr, FIG. 6E",stronger induction of pMEK in G13D cell lines; also recorded: more enhanced induction of pMEK following MEK inhibition relative to other KRAS mutants
same,RAS-GTP levels,"RAS-GTP; KRAS mutant lines, cobimetinib treatment, FIG. 4A",elevated RAS-GTP levels at baseline and upon cobimetinib treatment; also recorded: increased RAS-GTP levels
same,active RAS-GTP in response to treatment,"RAS-GTP; panel of colorectal cancer cell lines, FIG. 5I",Only cell lines showing synergy showed increased active RAS-GTP in response to cobimetinib treatment
same,EGFR activation (pEGFR levels),pEGFR,little evidence of EGFR activation
same,"cell viability and 1050, NRAS mutant vs BRAF-V600E",[4],showed greater efficacy in the BRAF-V600E cell line relative to the NRAS mutant cell line
same,single-agent effect on cell growth,A549 cells [5],had little effect on cell growth on their own
same,hit ranking / mean viability difference with AZ-628,[7],top hit; also recorded: scored highest among the compounds tested
same,kinase activity of RAF dimers after treatment,"RAF dimers; KRAS mutant cell lines, vs DMSO, FIG. 4A",highly active
same,pMEK levels in in vitro RAF kinase assay,"RAF dimers; colorectal lines with or without synergy, cobimetinib, FIG. 5B-5C","strong increases in pMEK levels after cobimetinib treatment were observed, primarily in the lines showing synergy"
same,"tumor growth, single agent",[8],modestly inhibited tumor growth
same,concentration at which BRAF-CRAF heterodimer formation and increase in kinase activity occur,"BRAF-CRAF heterodimer; A549, dose-dependent, FIG. 4E",50 to 100 nM
same,BRAF co-immunoprecipitation with CRAF,"BRAF-CRAF heterodimer; KRAS mutant cell lines (A549, H2122, and HCT116), FIG. 4A",BRAF strongly co-immunoprecipitated with CRAF

# From patent publication US11859252B2, “Diagnostic and therapeutic methods for cancer” (Genentech, Inc., priority 2017, dated 2024)
